Assay results published in article PMC5341405, “Lapachol, a compound targeting pyrimidine metabolism, ameliorates experimental autoimmune arthritis” (Arthritis Research & Therapy, 2017).
Where two headings read alike, the source gives them in different places.

Legend:
[1] = tested on: collagen-induced arthritis (CIA) in DBA1/J mice; experiment: Collagen-induced arthritis (CIA); format: in vivo
Experimental: Male DBA/1 J mice were injected i.d. at the base of the tail with 200 μg bovine type II collagen (CII; a gift from Dr. David D. Brand, University of Tennessee Health Science Center) emulsified in Freund’s complete adjuvant (CFA) on day 0. Mice were boosted i.d. with CII (200 μg emulsified in Freund’s incomplete adjuvant (IFA)) on day 21. Mice were monitored daily for signs of arthritis. Scores were assigned based on erythema, swelling, or ankylosis present in each paw on a scale of 0 to 3, giving a maximum score of 12 per mouse. After arthritis induction, mice were treated orally with LAP (3 mg/kg and 10 mg/kg) or LEF (3 mg/kg) or saline daily. The clinical score was addressed every day after collagen boost. All mice were euthanized for histologic assessment of the hind limbs 4 weeks after the boost.
Femur-tibial joints were collected 4 weeks after CII boost, fixed in 4% (vol/vol) buffered formalin and decalcified in 10% EDTA for 2–3 weeks. The tissues were then trimmed, dehydrated in ethanol, and embedded in paraffin for the preparation of the slides. Histological assessment was carried out following routine staining. Joint sections were stained with hematoxylin and eosin (H&E) to analyze synovitis (inflammatory cell influx and synovial hyperplasia) or Safranin-O to visualize proteoglycan depletion and cartilage destruction. The severity of the joint damage was scored according to the criteria described by Wang et al.: 0 = no destruction; 1 = minimal erosion; 2 = slight to moderate erosion in a limited area; 3 = more extensive erosion; 4 = general destruction.
Interleukin (IL)-17 and interferon (IFN)-γ cytokines were measured by enzyme-linked immunosorbent assay (ELISA) from hind paw homogenate of an individual mouse using antibodies according to the manufacturer’s instructions (R&D Systems, Minneapolis, MN, USA). The results were expressed as pg of cytokine/mg of tissue.
Myeloperoxidase (MPO) activity in tissue homogenates was used as an index of neutrophil infiltration into paws from CIA mice as previously described.

[2] = Pharmacokinetics after oral administration; format: in vivo, Wistar rats; conditions: for AUC(0-inf) / k el / Cmax / MRT / Tmax / half-life: Wistar, rat, plasma; for AUC(0-inf): po; for k el: read-out: Ke (converted)
Experimental: For administration to Wistar rats, LAP was dissolved in DMSO:Tween 80:glucose 5% in a proportion of 15:5:80 (v/v/v), resulting in a solution of 1 mg/ml (for intravenous (i.v.) administration) and another of 5 mg/ml (for oral administration). LAP was administered to rats as an i.v. bolus dose at 2 mg/kg (n = 7) and at two oral doses of 10 (n = 8) and 25 mg/kg (n = 6). LAP salt was administered as i.v. (2 mg/kg, n = 6) and oral doses (30 mg/kg equivalent to 27.5 mg/kg of LAP, n = 8). The i.v. doses were injected into the lateral tail vein, and oral doses were given by gavage. The doses were chosen based on previous toxicological and pharmacodynamic studies. At predetermined time points (30 min before dosing and at 0.08, 0.25, 0.5, 1, 2, 4, 6, 8, 12, and 24 h) after LAP i.v. administration, blood samples (200–250 μl) were withdrawn into heparinized tubes via puncture of the lateral tail vein, opposite to the vein used for drug dosing. The same procedure was carried out after oral administration of LAP, with blood sampling at 0.25, 0.5, 1, 1.5, 2, 3, 6, 12, 24, and 30 h. After LAP sodium salt i.v. and oral dosing, blood samples were harvested up to 10 and 12 h, respectively. Plasma was obtained by centrifugation of blood samples (6800 × g, at 4 °C for 10 min) and stored at –80 °C until analysis by UPLC-MS/MS.
LAP and LAP sodium salt pharmacokinetic parameters after i.v. and oral administration were determined from individual plasma profiles by a noncompartmental approach (NCA). The peak plasma concentration (Cmax) and the time of maximum concentration (Tmax) were obtained by visual inspection of the data from the plasma concentration–time curve after oral dosing. Pharmacokinetic parameters such an elimination rate constant (λ), area under the curve (AUC0–∞), clearance (CLtot), half-life (t1/2), volume of distribution (Vdss), mean residence time (MRT), and bioavailability (Fabs) were determined using classical equations. The compartmental analyses were performed using SCIENTIST v.2.0.1 software (MicroMath®, USA). One- and two-compartment models with or without weighting schemes were evaluated. The best model to fit the data was chosen based on the random distribution of residuals, the correlation coefficient, and the model selection criterion (MSC) given by the software.
The individual plasma profiles of LAP and LAP sodium salt after i.v. administration were best described by a two-compartmental open model. Plasma profiles after oral administration with two different doses of LAP and one dose of LAP sodium salt were best described by the one-compartmental model.
LAP concentration in plasma samples was determined by a validated (FDA, US Food and Drug Administration, 2001) UPLC-MS/MS method. Analyses were run on an Acquity UPLC BEH (Waters Acquity™) C18 column (2.1 × 50 mm, 1.7 μm particle size), with a flow of 300 μl/min at 35 °C. A gradient constituted of water (A) and acetonitrile (B) acidified with 0.1% acetic acid was used as follows: 0 min (90% A), 1 min (75% A), 7 min (50% A), 8.5 min (0% A) and 9.5 min (100% A). For the triple quadrupole, MS parameters were set as follows: capillary voltage (2.20 kV); extractor (3.0 V) source temperature (150 °C), desolvation temperature (300 °C), cone gas flow (50 l/h), and desolvation gas flow (700 l/h). For quantification, a multiple reaction monitoring method (MRM) was applied. For LAP, the transition of m/z 243 > 187 using cone energy of 24 V and collision energy of 19 V was determined as most appropriate for quantification (Calibration curves between 1 and 20,000 ng/ml of LAP, R > 0.99, low quantification limit of 1 ng/ml, and detection limit of 0.1 ng/ml).
A total of 200 μl cold acetonitrile containing internal standard (2-methyl-amino-lapachol) at 5 μg/ml and 0.05% trifluoroacetic acid was added to 100 μl of plasma and vortexed for 20 s. Precipitated protein was removed by centrifugation (6800 × g at 4 °C for 10 min). […]

CC(C)=CCC1=C(O)C(=O)c2ccccc2C1=O [LAP, 2-hydroxy-3-(3methyl-2-butenyl)-1,4-naphthoquinone]
severity of arthritis (clinical score and number of affected paws) ([1]; 3 mg/kg and 10 mg/kg orally daily, both doses): markedly attenuated the severity of arthritis | IL-17A levels in hind paws ([1]; dose of 10 mg/kg orally daily, 4 weeks after boost, ELISA): significant reduction in IL-17A levels | MPO activity in hind paws (neutrophil infiltration) ([1]; orally daily, 4 weeks after boost, vs vehicle-treated CIA mice): reduced MPO activity | histopathological features of arthritis severity (H&E, Safranin-O, knee joint) ([1]; orally daily, 4 weeks after boost, vs vehicle-treated group): markedly reduced all histopathological features of arthritis severity | Ka ([2]; 10 mg/kg oral LAP, 1-Comp): 2.61 ± 0.85 h⁻¹ | t1/2ß ([2]; 10 mg/kg oral LAP, 1-Comp): 4.2 ± 0.3 h | Fabs ([2]; 10 mg/kg oral LAP, NCA): 77% | l ([2]; 10 mg/kg oral LAP, NCA): 0.16 ± 0.01 h⁻¹ | Ka ([2]; 25 mg/kg oral LAP, 1-Comp): 2.93 ± 0.79 h⁻¹ | Vdss ([2]; 25 mg/kg oral LAP, 1-Comp): 0.24 ± 0.04 L/kg | t1/2ß ([2]; 25 mg/kg oral LAP, 1-Comp): 4.4 ± 0.6 h | Fabs ([2]; 25 mg/kg oral LAP, NCA): 65% | l ([2]; 25 mg/kg oral LAP, NCA): 0.19 ± 0.03 h⁻¹ | AUC(0-inf) ([2]; 10 mg/kg, 10 mg/kg oral LAP, 1-Comp): 237 ± 20.2 µg·h/mL | AUC(0-inf) ([2]; 10 mg/kg, 10 mg/kg oral LAP, NCA): 217 ± 22 µg·h/mL | AUC(0-inf) ([2]; 25 mg/kg, 25 mg/kg oral LAP, 1-Comp): 434 ± 79.7 µg·h/mL | AUC(0-inf) ([2]; 25 mg/kg, 25 mg/kg oral LAP, NCA): 449 ± 78.1 µg·h/mL | k el ([2]; 10 mg/kg oral LAP, 1-Comp): 4.72e-05 s⁻¹ | Cmax ([2]; 10 mg/kg oral LAP, NCA): 31600 ± 3800 ng/mL | MRT ([2]; 10 mg/kg oral LAP, NCA): 7.2 ± 0.6 h | Tmax ([2]; 10 mg/kg oral LAP, NCA): 1.2 ± 0.3 h | half-life ([2]; 10 mg/kg oral LAP, NCA): 192 ± 12 min | k el ([2]; 25 mg/kg oral LAP, 1-Comp): 4.44e-05 s⁻¹ | Cmax ([2]; 25 mg/kg oral LAP, NCA): 65600 ± 10600 ng/mL | MRT ([2]; 25 mg/kg oral LAP, NCA): 7.2 ± 0.7 h | Tmax ([2]; 25 mg/kg oral LAP, NCA): 1.3 ± 0.4 h | half-life ([2]; 25 mg/kg oral LAP, NCA): 216 ± 30 min
